In ChEMBL document CHEMBL1125732, “Synthesis and benzodiazepine binding activity of a series of novel [1,2,4]triazolo[1,5-c]quinazolin-5(6H)-ones” (J Med Chem, 1991):
pIC50: −log10 of the molar value.

Key:
[1] = biological target: GABA-A receptor; anion channel; assay: Displacement of [3H]- Diazepam from GABA-A Benzodiazepine receptor of rat forebrain
[2] = biological target: T1, GABA-A receptor; anion channel (Mus musculus) (UniProt Q8BHJ7+P26048+Q8QZW7+P50571+Q9R0Y8+P22723+A2AMW3+P62812+Q9JLF1+P26049+P22933+Q9D6F4+P63080+P27681+P16305); assay: In vivo percentage inhibition of flunitrazepam binding to Benzodiazepine receptor in mouse fore brain at 30 mg/Kg.; assay type: organism-based
[3] = biological target: GABA-A receptor; anion channel; assay: Binding affinity at Benzodiazepine receptor of rat forebrain by [3H]- flunitrazepam displacement.
Rattus norvegicus [4] = assay: Antagonism of Diazepam anti-convulsive effects in rats treated with metrazole ip dose at 10 mg/kg, 0/6 rats affected; assay type: functional; details: route intraperitoneal
Rattus norvegicus [5] = assay: Antagonism of Diazepam anti-convulsive effects in rats treated with metrazole ip dose at 3mg/kg, 2/6 rats affected; assay type: functional
Rattus norvegicus [6] = assay: Antagonism of Diazepam anti-convulsive effects in rats treated with metrazole ip dose at 0.3 mg/kg, 5/6 rats affected; assay type: functional; details: route intraperitoneal
Rattus norvegicus [7] = assay: Antagonism of Diazepam anti-convulsive effects in rats treated with metrazole ip dose at 30 mg/kg, 0/6 rats affected; assay type: functional; details: route intraperitoneal
Rattus norvegicus [8] = assay: Antagonism of Diazepam anti-convulsive effects in rats treated with metrazole ip dose at 1 mg/kg in rats, 1/6 rats affected; assay type: functional; details: route intraperitoneal
Rattus norvegicus [9] = assay: Antagonism of diazepam-induced rotarod deficit on ip dose in rats; assay type: functional
Rattus norvegicus [10] = assay: Antagonism of Diazepam anti-convulsive effects in rats treated with metrazole ip dose at 0.3mg/kg, 6/6 rats affected; assay type: functional
Rattus norvegicus [11] = assay: Antagonism of diazepam-induced discriminative stimuli in rats by ip dose; assay type: functional
Rattus norvegicus [12] = assay: Antagonism of Diazepam anti-convulsive effects in rats treated with metrazole ip dose at 1 mg/kg, 2/6 rats affected; assay type: functional; details: route intraperitoneal
Rattus norvegicus [13] = species: Rattus norvegicus; assay: Antagonism of diazepam-induced rotarod deficit after peroral dose in rats; assay type: functional; details: po
Rattus norvegicus [14] = species: Rattus norvegicus; assay: Antagonism of diazepam-induced discriminative stimuli in rats by peroral dose; assay type: functional; details: po
[15] = biological target: GABA-A receptor; anion channel; assay: Displacement of [3H]diazepam from GABA-A Benzodiazepine receptor of rat forebrain
[16] = biological target: T1, GABA-A receptor; anion channel (Mus musculus); details: 30 mg/kg
Description: In vivo percentage inhibition of flunitrazepam binding to mouse fore brain at 30 mg/kg

Rattus norvegicus [17] = assay: Antagonism of Diazepam anti-convulsive effects in rats treated with metrazole ip dose at 20 mg/kg, 0/6 rats affected; assay type: functional; details: route intraperitoneal
[18] = biological target: GABA-A receptor; anion channel; assay: Displacement of [3H]flunitrazepam from GABA-A Benzodiazepine receptor of rat forebrain
Rattus norvegicus [19] = assay: Antagonism of Diazepam anti-convulsive effects in rats treated with metrazole ip dose at 3mg/kg, 1/6 rats affected; assay type: functional
Rattus norvegicus [20] = assay: Antagonism of Diazepam anti-convulsive effects in rats treated with metrazole ip dose at 1 mg/kg, 5/6 rats affected; assay type: functional; details: route intraperitoneal
Rattus norvegicus [21] = species: Rattus norvegicus; assay: Antagonism of diazepam-induced rotarod deficit on peroral dose in rats; assay type: functional; details: po
Rattus norvegicus [22] = assay: Antagonism of Diazepam anti-convulsive effects in rats treated with metrazole ip dose at 1 mg/kg, 3/6 rats affected; assay type: functional; details: route intraperitoneal

Compound	pIC50 [1]	inhibition [2]	pIC50 [3]	also measured
Cn1c(=O)n2nc(C(F)(F)F)nc2c2ccccc21	< 6.00	–	–	–
Oc1nc2ccc(Cl)cc2c2nc(-c3cccnc3)nn12	8.00	24%	–	–
Oc1nc2ccc(Cl)cc2c2nc(-c3cccs3)nn12	–	21%	9.22	–
Oc1nc2ccccc2c2nc(C(F)(F)F)nn12	< 6.00	–	–	–
Oc1ccc(-c2nc3c4cc(Cl)ccc4nc(O)n3n2)cc1	–	0%	9.52	–
CN1CCCC(c2nc3c4cc(Cl)ccc4nc(O)n3n2)C1 (centres undefined)	–	–	< 6.00	–
Oc1nc2ccc(Cl)cc2c2nc(-c3ccoc3)nn12	–	–	8.46	–
Cn1c(=O)n2nc(-c3cccnc3)nc2c2ccccc21	< 5.00	–	–	–
Oc1nc2ccc(Cl)cc2c2nc(-c3ccco3)nn12	–	15%	9.22	–
Oc1nc2ccc(Cl)cc2c2nc(-c3ccccn3)nn12	7.00	–	–	–
Oc1nc2ccc(Cl)cc2c2nc(-c3cccc(F)c3)nn12	–	31%	8.40	Antagonist effect (Rattus norvegicus [4]): 0; Antagonist effect (Rattus norvegicus [5]): 2; Antagonist effect (Rattus norvegicus [6]): 5; Antagonist effect (Rattus norvegicus [7]): 0; Antagonist effect (Rattus norvegicus [8]): 1; ED50 (Rattus norvegicus [9]): > 30 mg/kg
Oc1nc2ccc(Cl)cc2c2nc(-c3ccccc3F)nn12	–	76%	9.40	Antagonist effect (Rattus norvegicus [4]): 0; Antagonist effect (Rattus norvegicus [5]): 2; Antagonist effect (Rattus norvegicus [7]): 0; Antagonist effect (Rattus norvegicus [10]): 6; ED50 (Rattus norvegicus [11]): 2.99 mg/kg; Antagonist effect (Rattus norvegicus [12]): 2; ED50 (Rattus norvegicus [9]): 6.92 mg/kg; ED50 (Rattus norvegicus [13]): 5.5 mg/kg; ED50 (Rattus norvegicus [14]): 6.51 mg/kg
Cc1ccc(-c2nc3c4cc(Cl)ccc4nc(O)n3n2)cc1	–	63%	6.70	–
Oc1nc2ccccc2c2nc(-c3cccnc3)nn12	6.89	48%	–	–
COc1ccc(-c2nc3c4cc(Cl)ccc4nc(O)n3n2)cc1	–	–	8.52	–
Oc1nc2ccc(Cl)cc2c2nc(Cc3ccccc3)nn12	–	0%	7.00	–

Compound	pIC50 [1]	inhibition [2]	pIC50 [3]	also measured
Oc1nc2ccc(Cl)cc2c2nc(-c3ccc(C(F)(F)F)cc3)nn12	–	–	< 6.00	–
Oc1nc2c(Cl)cc(Cl)cc2c2nc(-c3ccccc3)nn12	6.70	6%	–	–
Oc1nc2ccccc2c2nc(-c3ccccc3F)nn12	–	41%	9.40	–
Oc1nc2ccccc2c2nc(-c3ccccc3)nn12	8.40	55%	–	–
Oc1nc2ccccc2c2nc(-c3ccc(Cl)cc3)nn12	< 5.00	–	–	–
CN1C(=O)CN=C(c2ccccc2F)c2cc([N+](=O)[O-])ccc21 [FLUNITRAZEPAM]	–	–	–	pIC50 [15]: 8.82
CCOc1nc2c3ccccc3nc(O)n2n1	–	0%	8.60	–
O=C1C2C=Nc3ccccc3C2=NN1c1ccccc1 (centres undefined) [CGS-8216]	–	–	–	inhibition [16]: 90%; Antagonist effect (Rattus norvegicus [17]): 0; Antagonist effect (Rattus norvegicus [4]): 0; pIC50 [18]: 8.36; Antagonist effect (Rattus norvegicus [19]): 1; pIC50 [15]: 9.52; Antagonist effect (Rattus norvegicus [20]): 5; ED50 (Rattus norvegicus [21]): 0.6 mg/kg; ED50 (Rattus norvegicus [14]): 1.61 mg/kg
Oc1nc2ccccc2c2nc(-c3ccncc3)nn12	–	19%	–	–
O=c1[nH]c2ccccc2c2nc(-c3ccncc3)nn12	6.70	–	–	–
Oc1nc2ccc(Cl)cc2c2nc(C3CCCO3)nn12 (centres undefined)	–	–	< 7.00	–
Oc1nc2ccc(Cl)cc2c2nc(-c3ccccc3)nn12	–	72%	8.10	Antagonist effect (Rattus norvegicus [22]): 3; Antagonist effect (Rattus norvegicus [4]): 0; Antagonist effect (Rattus norvegicus [5]): 2; Antagonist effect (Rattus norvegicus [7]): 0; Antagonist effect (Rattus norvegicus [10]): 6; ED50 (Rattus norvegicus [9]): 26 mg/kg; ED50 (Rattus norvegicus [13]): 2.8 mg/kg
Oc1nc2ccc(Cl)cc2c2nc(-c3ccc(F)cc3)nn12	–	52%	7.70	–
OCc1nc2c3ccccc3nc(O)n2n1	–	0%	< 7.00	–
Cn1c(=O)n2nc(-c3ccccc3)nc2c2ccccc21	6.46	55%	–	–
COc1cc(-c2nc3c4cc(Cl)ccc4nc(O)n3n2)cc(OC)c1OC	–	–	< 6.00	–
